Reference: patent US10414765B2, “Substituted perhydropyrrolo[3,4-c]pyrrole derivatives and the use of same” (BAYER PHARMA AKTIENGESELLSCHAFT, priority 2015, dated 2019)

Key:
Format in all cases: cell-based
human TASK-1 [1] = target: T1, human TASK-1 (Homo sapiens (Human), UniProt O14649); experiment: Two-electrode voltage clamp of human TASK-1 channels expressed in Xenopus laevis oocytes
Procedure: (§1) B-1. In Vitro Electrophysiological Analysis of the Human TASK-1 and TASK-3 Channels Via Two-Electrode Voltage Clamp Technique in Xenopus laevis Oocytes
(§2) Xenopus laevis oocytes were selected as described elsewhere by way of illustration [Decher et al., FEBS Lett. 492, 84-89 (2001)]. Subsequently, the oocytes were injected with 0.5-5 ng of a cRNA solution coding for TASK-1 or TASK-3. For the electrophysiological analysis of the channel proteins expressed in the oocytes, the two-electrode voltage clamp technique [Stiihmer, Methods Enzymol. 207, 319-339 (1992)] was used. The measurements were conducted as described [Decher et al., FEBS Lett. 492, 84-89 (2001)] at room temperature (21-22° C.) using a Turbo TEC 10CD amplifier (NPI), recorded at 2 kHz and filtered with 0.4 kHz. Substance administration was performed using a gravitation-driven perfusion system. Here, the oocyte is located in a measuring chamber and exposed to the solution stream of 10 ml/min. The level in the measuring chamber is monitored and regulated by sucking off the solution using a peristaltic pump.

human TASK-3 [2] = target: T2, human TASK-3 (Homo sapiens (Human), UniProt Q9NPC2); experiment: Two-electrode voltage clamp of human TASK-3 channels expressed in Xenopus laevis oocytes
Procedure: as §1, §2

human TASK-1 [3] = target: T1, human TASK-1; experiment: Inhibition of recombinant TASK-1 in stably transfected CHO cells (voltage-sensitive dye, 40 mM KCl depolarization); conditions: 40 mM potassium chloride
Procedure: (§3) B-2. Inhibition of Recombinant TASK-1 and TASK-3 In Vitro
(§4) The investigations on the inhibition of the recombinant TASK-1 and TASK-3 channels were conducted using stably transfected CHO cells. The compounds according to the invention were tested in this case by application of 40 mM potassium chloride in the presence of a voltage-sensitive dye according to the methods described in detail in the following references [Whiteaker et al., Validation of FLIPR membrane potential dye for high-throughput screening of potassium channel modulators, J. Biomol. Screen. 6 (5), 305-312 (2001); Molecular Devices FLIPR Application Note: Measuring membrane potential using the FLIPR® membrane potential assay kit on Fluorometric Imaging Plate Reader (FLIPR®) systems, http://www.moleculardevices.com/reagents-supplies/assay-kits/ion-channels/flipr-membrane-potential-assay-kits]. The activity of the test substances was determined as their ability to inhibit a depolarization induced in the recombinant cells by 40 mM potassium chloride. The concentration which can block half of this depolarization is referred to as IC50.

human TASK-3 [4] = target: T2, human TASK-3; experiment: Inhibition of recombinant TASK-3 in stably transfected CHO cells (voltage-sensitive dye, 40 mM KCl depolarization); conditions: 40 mM potassium chloride
Procedure: as §3, §4

T1 sequence (O14649 whole entry): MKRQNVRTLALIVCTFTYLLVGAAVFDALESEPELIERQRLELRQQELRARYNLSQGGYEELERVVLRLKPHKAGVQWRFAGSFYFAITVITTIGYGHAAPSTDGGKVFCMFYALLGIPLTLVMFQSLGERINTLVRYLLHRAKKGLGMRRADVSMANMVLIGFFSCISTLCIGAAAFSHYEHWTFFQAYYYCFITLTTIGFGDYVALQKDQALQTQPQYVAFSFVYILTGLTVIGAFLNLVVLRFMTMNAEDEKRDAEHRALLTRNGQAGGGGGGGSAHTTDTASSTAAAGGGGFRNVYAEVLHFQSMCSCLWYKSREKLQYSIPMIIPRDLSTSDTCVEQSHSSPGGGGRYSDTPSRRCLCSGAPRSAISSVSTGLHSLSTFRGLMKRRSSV
T2 sequence (Q9NPC2 whole entry): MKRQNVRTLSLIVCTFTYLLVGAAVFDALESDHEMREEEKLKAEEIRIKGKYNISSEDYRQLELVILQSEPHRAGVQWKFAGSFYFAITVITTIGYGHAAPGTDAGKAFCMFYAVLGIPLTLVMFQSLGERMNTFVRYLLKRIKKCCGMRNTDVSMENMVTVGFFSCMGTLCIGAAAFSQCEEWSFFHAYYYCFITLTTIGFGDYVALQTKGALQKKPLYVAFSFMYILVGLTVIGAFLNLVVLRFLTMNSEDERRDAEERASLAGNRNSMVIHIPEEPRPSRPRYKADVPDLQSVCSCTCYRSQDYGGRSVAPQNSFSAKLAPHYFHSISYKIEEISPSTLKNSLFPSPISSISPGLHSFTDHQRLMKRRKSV

COc1cccc(C(=O)N2CC3CN(Cc4c(-c5ccc(Br)cc5)nc5ccccn45)CC3C2)c1 (stereo not shown) [Example 10]
IC50 (human TASK-1 [1]): 31.2 ± 1.7 nM | IC50 (human TASK-3 [2]): 970 ± 220 nM | IC50 (human TASK-1 [3]): 206 nM | IC50 (human TASK-3 [4]): 485 nM

COc1cccc(C(=O)N2CC3CN(Cc4c(-c5ccc(Cl)cc5)nc5ccccn45)CC3C2)n1 (stereo not shown) [Example 4, [5-{[2-(4-Chlorophenyl)imidazo[1,2-a]pyridin-3-yl]methyl}hexahydropyrrolo[3,4-c]pyrrol-2(1H)-yl](6-methoxypyridin-2-yl)methanone]
IC50 (human TASK-1 [1]): 59.9 ± 16.2 nM | IC50 (human TASK-3 [2]): 256 ± 48.8 nM | IC50 (human TASK-1 [3]): 947 nM | IC50 (human TASK-3 [4]): 2300 nM

O=C(c1ccccc1)N1CC2CN(Cc3c(-c4ccc(Cl)cc4)nc4ccc(-c5ccccc5)cn34)CC2C1 (stereo not shown) [comparative compound, reference compound]
IC50 (human TASK-1 [1]): > 10000 nM | inhibition at 1 µM (human TASK-1 [1]; 1 μM): 11.4 ± 1.5% | inhibition at 10 µM (human TASK-1 [1]; 10 μM): 37.2 ± 7.5% | TASK-3 IC50 (human TASK-3 [2]): inactive | inhibition at 1 µM (human TASK-3 [2]; 1 μM): 5.6 ± 1.3% | inhibition at 10 µM (human TASK-3 [2]; 10 μM): 8.9 ± 0.9%

COc1cccc(C(=O)N2CC3CN(Cc4c(-c5ccc(C(C)C)cc5)nc5ccccn45)CC3C2)n1 (stereo not shown) [Example 25]
IC50 (human TASK-1 [1]): 62.2 ± 7.9 nM | IC50 (human TASK-3 [2]): 44.1 ± 5.8 nM | IC50 (human TASK-1 [3]): 230 nM | IC50 (human TASK-3 [4]): 410 nM

O=C(Nc1cc(C(F)(F)F)ccc1Cl)N1CC2CN(Cc3c(-c4ccc(Br)cc4)nc4ccccn34)CC2C1 (stereo not shown) [Example 44]
IC50 (human TASK-1 [3]): 700 nM | IC50 (human TASK-3 [4]): 2000 nM

COc1ccccc1C(=O)N1CC2CN(Cc3c(-c4ccc(Cl)cc4)nc4ccccn34)CC2C1 (stereo not shown) [Example 18]
IC50 (human TASK-1 [3]): 1680 nM | IC50 (human TASK-3 [4]): 4900 nM

COc1cccc(C(=O)N2CC3CN(Cc4c(-c5ccc(Cl)cc5)nc5ccccn45)CC3C2)c1 (stereo not shown) [Example 17]
IC50 (human TASK-1 [1]): 9.3 ± 2.5 nM | IC50 (human TASK-3 [2]): 21.8 ± 2.2 nM | IC50 (human TASK-1 [3]): 721 nM | IC50 (human TASK-3 [4]): 1900 nM

O=C(N1CC2CN(Cc3c(-c4ccc(Br)cc4)nc4ccccn34)CC2C1)N1CCCc2ccccc21 (stereo not shown) [Example 30]
IC50 (human TASK-1 [3]): 480 nM | IC50 (human TASK-3 [4]): 1200 nM
